Measurements as given in ChEMBL document CHEMBL1201862, “PubChem BioAssay data set” (2004).
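Values below derive from 48-hour exposures of cells grown in 96-well plates, with endpoints linearly interpolated between the two concentrations bracketing the appropriate inhibition level. The concentration for 50% growth inhibition is given as GI50.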 Activity calls are given as the source filed them. Rule as the data show it: active = GI50 up to about 1.1 µM and inactive = higher.

Legend:
Test in all cases: growth of human tumour cells (NCI), 48 h
[1] = system: SN12C
[2] = system: NCI-H23
[3] = system: K562
[4] = system: 786-0
[5] = system: UACC-62
[6] = system: SR
[7] = system: SNB-19
[8] = system: CAKI-1
[9] = system: EKVX
[10] = system: NCI-H522
[11] = system: SF-539
[12] = system: MOLT-4
[13] = system: ACHN
[14] = system: HCT-15
[15] = system: LOX IMVI
[16] = system: COLO 205
[17] = system: OVCAR-8
[18] = system: HT-29
[19] = system: Malme-3M
[20] = system: NCI-H226
[21] = system: DMS-114
[22] = system: A549
[23] = system: U-251
[24] = system: SK-MEL-2
[25] = system: XF498
[26] = system: LXFL 529
[27] = system: SF-295
[28] = system: SF-268
[29] = system: TK-10
[30] = system: RXF 393
[31] = system: RPMI-8226
[32] = system: HCT-116
[33] = system: SK-MEL-28
[34] = system: SNB-78
[35] = system: IGROV-1
[36] = system: DLD-1
[37] = system: OVCAR-4
[38] = system: SNB-75
[39] = system: KM-20L2
[40] = system: KM12
[41] = system: SW-620
[42] = system: M19-MEL
[43] = system: M14
[44] = system: HOP-62
[45] = system: OVCAR-5
[46] = system: CCRF-CEM
[47] = system: SK-MEL-5
[48] = system: OVCAR-3
[49] = system: HOP-18
[50] = system: A498
[51] = system: DMS-273
[52] = system: NCI-H460
[53] = system: UO-31
[54] = system: UACC-257
[55] = system: SK-OV-3
[56] = system: HL-60
[57] = system: HCC 2998

O=C(CN(c1ccccc1)c1ccccc1)N1c2ccccc2C2C=CC=CC21 (stereo not drawn)
GI50 [1]: 8.34 µM (inactive)
GI50 [2]: 23.2 µM (inactive)
GI50 [3]: 14.3 µM (inactive)
GI50 [4]: 22.6 µM (inactive)
GI50 [5]: 21.1 µM (inactive)
GI50 [6]: 0.579 µM (active)
GI50 [7]: 17.5 µM (inactive)
GI50 [8]: 18.3 µM (inactive)
GI50 [9]: 24.3 µM (inactive)
GI50 [10]: 18 µM (inactive)
GI50 [11]: 18.8 µM (inactive)
GI50 [12]: 8.05 µM (inactive)
GI50 [13]: 24 µM (inactive)
GI50 [14]: 16.7 µM
GI50 [15]: 18.2 µM (inactive)
GI50 [16]: 11 µM (inactive)
GI50 [17]: 20.7 µM (inactive)
GI50 [18]: 22.2 µM (inactive)
GI50 [19]: 21.6 µM (inactive)
GI50 [20]: 18.5 µM (inactive)
GI50 [21]: 7.38 µM (inactive)
GI50 [22]: 23.8 µM (inactive)
GI50 [23]: 21.3 µM (inactive)
GI50 [24]: 18.1 µM (inactive)
GI50 [25]: 19.6 µM (inactive)
GI50 [26]: 16 µM (inactive)
GI50 [27]: 24.5 µM (inactive)
GI50 [28]: 26.5 µM (inactive)
GI50 [29]: 24.3 µM (inactive)
GI50 [30]: 30.5 µM (inactive)
GI50 [31]: 8.22 µM (inactive)
GI50 [32]: 13.8 µM (inactive)
GI50 [33]: 30.4 µM (inactive)
GI50 [34]: 36.8 µM (inactive)
GI50 [35]: 21.3 µM (inactive)
GI50 [36]: 25.6 µM (inactive)
GI50 [37]: 11.1 µM (inactive)
GI50 [38]: 18.1 µM (inactive)
GI50 [39]: 24.2 µM (inactive)
GI50 [40]: 27.3 µM (inactive)
GI50 [41]: 23.7 µM (inactive)
GI50 [42]: 21.5 µM (inactive)
GI50 [43]: 25.6 µM (inactive)
GI50 [44]: 20.1 µM (inactive)
GI50 [45]: 24 µM (inactive)
GI50 [46]: 9.42 µM (inactive)
GI50 [47]: 15.6 µM (inactive)
GI50 [48]: 17.4 µM (inactive)
GI50 [49]: 25.6 µM (inactive)
GI50 [50]: 32.4 µM (inactive)
GI50 [51]: 22 µM (inactive)
GI50 [52]: 19.3 µM (inactive)
GI50 [53]: 30.1 µM (inactive)
GI50 [54]: 18.3 µM (inactive)
GI50 [55]: 23.6 µM (inactive)
GI50 [56]: 7.23 µM (inactive)

COC1(OC)CCCCC2c3cccc(OC(C)=O)c3C21OC(C)=O (stereo not drawn)
GI50 [1]: > 100 µM (inactive)
GI50 [2]: > 100 µM (inactive)
GI50 [3]: 55.3 µM (inactive)
GI50 [4]: > 100 µM (inactive)
GI50 [5]: > 100 µM (inactive)
GI50 [6]: 59.2 µM (inactive)
GI50 [7]: > 100 µM (inactive)
GI50 [57]: > 100 µM (inactive)
GI50 [9]: > 100 µM (inactive)
GI50 [10]: > 100 µM (inactive)
GI50 [11]: > 100 µM (inactive)
GI50 [12]: 64.3 µM (inactive)
GI50 [13]: 78.9 µM (inactive)
GI50 [14]: 73.8 µM
GI50 [15]: > 100 µM (inactive)
GI50 [16]: > 100 µM (inactive)
GI50 [17]: > 100 µM (inactive)
GI50 [18]: > 100 µM (inactive)
GI50 [19]: > 100 µM (inactive)
GI50 [20]: > 100 µM (inactive)
GI50 [21]: > 100 µM (inactive)
GI50 [22]: > 100 µM (inactive)
GI50 [24]: > 100 µM (inactive)
GI50 [25]: 29.2 µM (inactive)
GI50 [26]: > 100 µM (inactive)
GI50 [27]: > 100 µM (inactive)
GI50 [28]: > 100 µM (inactive)
GI50 [29]: > 100 µM (inactive)
GI50 [31]: 54 µM (inactive)
GI50 [32]: 57.9 µM (inactive)
GI50 [33]: > 100 µM (inactive)
GI50 [34]: > 100 µM (inactive)
GI50 [35]: > 100 µM (inactive)
GI50 [36]: > 100 µM (inactive)
GI50 [37]: > 100 µM (inactive)
GI50 [38]: > 100 µM (inactive)
GI50 [40]: > 100 µM (inactive)
GI50 [41]: > 100 µM (inactive)
GI50 [42]: > 100 µM (inactive)
GI50 [43]: > 100 µM (inactive)
GI50 [44]: > 100 µM (inactive)
GI50 [45]: > 100 µM (inactive)
GI50 [46]: > 100 µM (inactive)
GI50 [47]: > 100 µM (inactive)
GI50 [48]: 94 µM (inactive)
GI50 [49]: > 100 µM (inactive)
GI50 [51]: > 100 µM (inactive)
GI50 [52]: > 10 µM (inactive)
GI50 [53]: 51.6 µM (inactive)
GI50 [54]: > 100 µM (inactive)
GI50 [55]: > 100 µM (inactive)
GI50 [56]: 65.8 µM (inactive)
